This test addresses T1, rAb-FAR-1 (Aphelenchoides besseyi, UniProt R9QS34).
T1 construct: E. coli BL21(DE3), pET-32a (BamHI/XhoI), N-terminal His-tag fusion, Ni-purified; ORF 181 aa with predicted signal peptide; called full-length, primer FARf-BamHI lacks ATG at its start
Nature of the test: fluorescence titration. It is filed as binding.
T1 sequence (R9QS34 entry or part of it): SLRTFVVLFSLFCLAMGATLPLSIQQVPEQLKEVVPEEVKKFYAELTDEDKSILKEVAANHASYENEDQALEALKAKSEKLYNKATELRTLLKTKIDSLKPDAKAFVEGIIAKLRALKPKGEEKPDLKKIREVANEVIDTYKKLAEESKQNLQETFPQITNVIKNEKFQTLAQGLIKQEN
The molecule `CC\C=C/C=C/C=C/C=C\CCCCCCCC(=O)O` [cis-parinaric acid] returned a Kd of 6.69 µM. `CN(C)c1cccc2c(S(=O)(=O)NCCCCCCCCCCC(=O)O)cccc12` [DAUDA, 11-((5-dimethylaminonaphthalene-1-sulfonyl)amino) undecannoic acid] yielded a Kd of 3.4 µM. The figure for `CC1=C(/C=C/C(C)=C/C=C/C(C)=C/CO)C(C)(C)CCC1` [retinol] is 3.41 µM.

These data come from paper PMC3673936, “Molecular Characterization and Functions of Fatty Acid and Retinoid Binding Protein Gene (Ab-far-1) in Aphelenchoides besseyi” (PLoS ONE, 2013).
